In patent US9096593B2, “Compounds and methods for kinase modulation, and indications therefor” (Plexxikon Inc., priority 2009, dated 2015):
Where two headings read alike, the source gives them in different places.

How the values were obtained:
Fms kinase = Fms kinase (Homo sapiens (Human), UniProt P07333); experiment: Fms kinase biochemical activity assay (AlphaScreen, biotin-(E4Y)10 phosphorylation)
Method in brief: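 Recombinant human Fms phosphorylating 30 nM biotin-(E4Y)10 with 100 μM ATP (1 ng/well enzyme) in Hepes pH 7.5 buffer with Mg2+/Mn2+, 5% DMSO, 20 min at 30 °C. Phosphotyrosine detected by AlphaScreen streptavidin donor/PY20 acceptor beads; IC50 from signal versus compound concentration.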

BCR-KIT/BaF3 cells = BCR-KIT/BaF3 cells (Homo sapiens, UniProt P10721); experiment: BCR-KIT/BaF3 cell proliferation assay (ATPlite); assay type: cell-based; settings: read-out: BCR/BaF3 (IC50 μM) Kit
Chain of BCR-KIT/BaF3 cells (P10721 26-976 limits assumed, change not shown): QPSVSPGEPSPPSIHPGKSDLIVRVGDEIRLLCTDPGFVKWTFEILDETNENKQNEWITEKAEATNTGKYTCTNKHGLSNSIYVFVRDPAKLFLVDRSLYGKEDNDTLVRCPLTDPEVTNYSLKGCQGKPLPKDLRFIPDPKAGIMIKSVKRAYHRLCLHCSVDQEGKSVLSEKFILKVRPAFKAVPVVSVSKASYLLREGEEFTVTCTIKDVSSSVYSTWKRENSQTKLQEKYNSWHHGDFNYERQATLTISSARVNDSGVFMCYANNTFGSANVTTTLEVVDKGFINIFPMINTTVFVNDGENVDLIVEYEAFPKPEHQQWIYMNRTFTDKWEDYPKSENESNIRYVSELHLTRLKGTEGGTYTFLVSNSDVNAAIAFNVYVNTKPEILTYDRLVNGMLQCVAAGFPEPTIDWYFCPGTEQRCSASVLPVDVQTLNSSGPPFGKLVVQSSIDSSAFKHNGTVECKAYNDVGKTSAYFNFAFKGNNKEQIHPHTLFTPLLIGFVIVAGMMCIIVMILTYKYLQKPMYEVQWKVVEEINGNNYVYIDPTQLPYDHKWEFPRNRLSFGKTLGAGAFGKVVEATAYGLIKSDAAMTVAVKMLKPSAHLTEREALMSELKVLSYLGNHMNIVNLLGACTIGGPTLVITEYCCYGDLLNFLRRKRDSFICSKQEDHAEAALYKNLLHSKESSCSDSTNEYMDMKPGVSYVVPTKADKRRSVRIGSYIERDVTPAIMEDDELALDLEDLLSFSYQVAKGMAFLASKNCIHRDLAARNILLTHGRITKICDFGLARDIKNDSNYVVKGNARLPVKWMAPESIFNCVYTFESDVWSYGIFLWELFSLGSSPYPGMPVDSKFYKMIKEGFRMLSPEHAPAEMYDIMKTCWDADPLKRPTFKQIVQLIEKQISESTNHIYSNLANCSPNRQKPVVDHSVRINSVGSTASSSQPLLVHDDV
Procedure: Compounds are assessed in a variety of cell based assays. For example BCR-FMS/BaF3, BCR-KIT/BaF3, M-NFS-60, M-07e, and BAC1.2F5 cell proliferation assays are used to assess inhibitory activity of Fms or Kit and MV-4-11 cell proliferation assay is used to assess inhibitory activity in Flt-3. Reagent and assay conditions are as follows: • BCR-FMS/BaF3 and BCR-KIT/BaF3 cells: • Maintained in RPMI containing 10% FBS, 1% PenStrep, 1% NEAA, and 1% L-Glutamine, supplemented with 1 mg/mL G418 and 5% WEHI-CM (or recombinant murine IL-3). • Confluent cells are split 1:50 to 1:100 every 3-4 days. • M-NFS-60 cells (ATCC #CRL-1838): • Maintained in RPMI containing 10% FBS, 1% Hepes, 1% NaPyruvate, and 0.45% Glucose, supplemented with 62 ng/mL murine M-CSF. • Confluent cells are split 1:20 every 3-4 days. • M-07e cells (DSMZ #ACC 104): • Maintained in IMDM containing 10% FBS, supplemented with either 200 ng/mL human SCF or […] SCF (R&D Systems 255-SC). • Confluent cells are split 1:5 to 1:10 every 3-4 days. • BAC1.2F5 cells: • Maintained in Alpha-MEM containing 10% Newborn Calf Serum (Invitrogen #26010-074) supplemented with 36 ng/mL murine M-CSF. • Confluent cells are split 1:4 every 3-4 days. • MV-4-11 cells: • Maintained in Iscove's Modified Dulbecco's Medium containing 10% FBS. • Confluent cells are split 1:4 every 3-4 days. On day 1, cells are counted, then centrifuged in a conical tube for 5 minutes at 1000 rpm. The supernatant is removed and cells are re-suspended as follows: • BCR-FMS/BaF3 and BCR-KIT/BaF3: resuspend in growth media+1 mg/mL G418 (without WEHI/IL-3) to 2×10^5 cells/mL. • M-NFS-60: resuspend in growth media +62 ng/mL murine M-CSF to 5×10^5 cells/mL. • M-07e: resuspend in growth media +200 ng/mL human SCF to 5×10^5 cells/mL. • BAC1.2F5: resuspend in growth media +36 ng/mL murine M-CSF to 1.4×10^5 cells/mL. • MV-4-11: resuspend in growth media +10% FBS to 5×10^5 cells/mL. The cells are plated (50 μL) in each well of a 96-well dish (Corning 3610) and incubated at 37° C. in 5% CO2 overnight, cells plated to a final concentration of cells as follows: • BCR-FMS/BaF3 and BCR-KIT/BaF3: 10,000 cells per well. • M-NFS-60: 25,000 cells per well. • M-07e: 25,000 cells per well. • BAC1.2F5: 7,000 cells per well. • MV-4-11: 25,000 cells per well. On day 2, compound at a maximum concentration of 5 mM is serially diluted 1:3 for a total of 8 point titration with DMSO as a control. A 1 μL aliquot of each dilution point is added to 249 μL growth media and 50 μL is added to a well containing cells, providing 10 μM compound for the maximum concentration point. The cells are incubated for 3 days at 37° C. in 5% CO2. On day 5, ATPlite 1 step Luminescence Assay System (Perkin Elmer #6016739) is brought to room temperature along with the cell cultures. ATPlite is added to each well as follows: • BCR-FMS/BaF3 and BCR-KIT/BaF3: 25 μL per well. • M-NFS-60: 25 μL per well. • M-07c: 40 μL per well. • BAC1.2F5: 50 μL per well. • MV-4-11: 40 μL per well. The cells are incubated at room temperature for 10 minutes, then luminescence is read on Safire reader. The measured luminescence correlates directly with cell number, such that the reading as a function of compound concentration is used to determine the IC50 value.

[1] = read-out: Biochemical activity (IC50 μM) Fms

Chain of Fms kinase (P07333 20-972): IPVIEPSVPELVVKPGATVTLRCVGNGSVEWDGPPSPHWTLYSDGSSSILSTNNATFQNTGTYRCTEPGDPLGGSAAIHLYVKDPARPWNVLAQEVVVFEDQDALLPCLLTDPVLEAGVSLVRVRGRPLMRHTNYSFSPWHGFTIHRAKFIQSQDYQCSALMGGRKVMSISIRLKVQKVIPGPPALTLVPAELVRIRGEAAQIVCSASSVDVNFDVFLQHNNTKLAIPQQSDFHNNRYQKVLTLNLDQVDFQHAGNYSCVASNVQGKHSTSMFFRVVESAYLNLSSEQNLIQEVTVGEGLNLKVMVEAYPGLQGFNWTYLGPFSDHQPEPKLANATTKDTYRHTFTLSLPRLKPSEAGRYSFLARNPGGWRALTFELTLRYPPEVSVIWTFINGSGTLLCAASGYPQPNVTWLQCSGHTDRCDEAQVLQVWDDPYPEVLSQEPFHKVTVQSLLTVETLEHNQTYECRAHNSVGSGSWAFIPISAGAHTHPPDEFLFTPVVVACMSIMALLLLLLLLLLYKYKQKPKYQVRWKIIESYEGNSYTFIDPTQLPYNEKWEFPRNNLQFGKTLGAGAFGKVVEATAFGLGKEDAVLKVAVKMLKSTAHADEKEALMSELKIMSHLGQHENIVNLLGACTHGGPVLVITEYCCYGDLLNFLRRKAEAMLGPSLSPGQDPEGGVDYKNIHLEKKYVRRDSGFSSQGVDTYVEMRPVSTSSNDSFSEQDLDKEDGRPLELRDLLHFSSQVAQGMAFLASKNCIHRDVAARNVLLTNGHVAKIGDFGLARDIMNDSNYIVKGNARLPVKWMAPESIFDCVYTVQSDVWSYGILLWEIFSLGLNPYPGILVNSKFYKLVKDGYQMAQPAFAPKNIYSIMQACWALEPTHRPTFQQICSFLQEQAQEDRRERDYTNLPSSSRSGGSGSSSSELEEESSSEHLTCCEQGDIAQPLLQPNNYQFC

| SMILES | Biochemical activity selectivity (Kit IC50/Fms IC50) (Fms kinase) | IC50 (Fms kinase; [1]) [µM] | IC50 (BCR-KIT/BaF3 cells) [µM] | IC50 (Fms kinase; 100 μM ATP, read-out: Biochemical (IC50 μM) Fms) [µM] |
| --- | --- | --- | --- | --- |
| COc1ncccc1CNc1ccc(Cc2c[nH]c3ncccc23)c(F)n1 [Compound P-2045, [6-Fluoro-5-(1H-pyrrolo[2,3-b]pyridin-3-ylmethyl)-pyridin-2-yl]-(2-methoxy-pyridin-3-ylmethyl)-amine] | >20 | < 0.1 | > 0.1 | – |
| COc1ccc(CNc2ncc(Cc3c[nH]c4ncc(Cl)cc34)s2)cn1 [Compound P-2154, [5-(5-Chloro-1H-pyrrolo[2,3-b]pyridin-3-ylmethyl)-thiazol-2-yl]-(6-methoxy-pyridin-3-ylmethyl)-amine] | <20 | < 0.1 | > 0.1 | – |
| Cc1cnc2[nH]cc(Cc3cnc(NCc4cccc(N5CCCC5)n4)nc3)c2c1 [Compound P-2082, [5-(5-Methyl-1H-pyrrolo[2,3-b]pyridin-3-ylmethyl)-pyrimidin-2-yl]-(6-pyrrolidin-1-yl-pyridin-2-ylmethyl)-amine] | <20 | < 0.1 | > 0.1 | – |
| CCS(=O)(=O)Nc1ccccc1CNc1ccc(Cc2c[nH]c3ncc(C)cc23)c(F)n1 [Compound P-2198, Ethanesulfonic acid (2-{[6-fluoro-5-(5-methyl-1H-pyrrolo[2,3-b]pyridin-3-ylmethyl)-pyridin-2-ylamino]-methyl}-phenyl)-amide] | <20 | < 0.1 | > 0.1 | – |
| Cn1cc(F)cc(CNc2ncc(Cc3c[nH]c4ncc(Cl)cc34)cn2)c1=O [Compound P-2157, 3-{[5-(5-Chloro-1H-pyrrolo[2,3-b]pyridin-3-ylmethyl)-pyrimidin-2-ylamino]-methyl}-5-fluoro-1-methyl-1H-pyridin-2-one] | <20 | > 0.1 | > 0.1 | – |
| Cc1cnc2[nH]cc(Cc3cnc(NCc4cccc(N5CCOCC5)n4)nc3)c2c1 [Compound P-2081, [5-(5-Methyl-1H-pyrrolo[2,3-b]pyridin-3-ylmethyl)-pyrimidin-2-yl]-(6-morpholin-4-yl-pyridin-2-ylmethyl)-amine] | <20 | < 0.1 | > 0.1 | – |
| COc1ncc(CNc2ncc(Cc3c[nH]c4ncc(C)cc34)cn2)cc1F [Compound P-2073, (5-Fluoro-6-methoxy-pyridin-3-ylmethyl)-[5-(5-methyl-1H-pyrrolo[2,3-b]pyridin-3-ylmethyl)-pyrimidin-2-yl]-amine] | >20 | < 0.1 | > 0.1 | – |
| COc1ccc(CNc2ncc(Cc3c[nH]c4ncc(C)cc34)cc2F)cn1 [Compound P-1562, [3-Fluoro-5-(5-methyl-1H-pyrrolo[2,3-b]pyridin-3-ylmethyl)-pyridin-2-yl]-(6-methoxy-pyridin-3-ylmethyl)-amine] | <20 | < 0.1 | > 0.1 | – |
| Fc1cncc(CNc2ncc(Cc3c[nH]c4ncc(Cl)cc34)cn2)c1 [Compound P-2176, [5-(5-Chloro-1H-pyrrolo[2,3-b]pyridin-3-ylmethyl)-pyrimidin-2-yl]-(5-fluoro-pyridin-3-ylmethyl)-amine] | >20 | < 0.1 | > 0.1 | – |
| Cc1cnc2[nH]cc(Cc3ccc(NCc4ccc(C(F)(F)F)nc4)nc3)c2c1 [Compound P-2019, [5-(5-Methyl-1H-pyrrolo[2,3-b]pyridin-3-ylmethyl)-pyridin-2-yl]-(6-trifluoromethyl-pyridin-3-ylmethyl)-amine] | <20 | < 0.1 | < 0.1 | < 0.1 |
| COc1ncccc1CNc1ccc(Cc2c[nH]c3ncc(C)cc23)c(F)n1 [Compound P-2052, [6-Fluoro-5-(5-methyl-1H-pyrrolo[2,3-b]pyridin-3-ylmethyl)-pyridin-2-yl]-(2-methoxy-pyridin-3-ylmethyl)-amine] | >20 | < 0.1 | > 0.1 | – |
